According to patent US7531530B2, “Therapeutic compounds” (Cancer Research Technology Limited, priority 2003, dated 2009):

Experiments:
PARP [1] = target: T1, PARP (Mus musculus, UniProt P11103); assay: Cellular PARP activity assay, permeabilised L1210 cells; format: cell-based; conditions: L1210 cells permeabilised with digitonin prior to adding the inhibitor
T1 construct: endogenous in cells; host or cells: L1210 cells
Method: (§1) Exponentially growing cells were exposed to 1% DMSO in culture medium (control) or a compound of formula I or III in 1% DMSO at the concentrations indicated in FIG. 4 to cells permeabilised with digitonin, or intact cells for 20 minutes prior to washing and digitonin-permeabilization. PARP activity was measured by incorporation of a [32P] labelled NAD+ substrate into TCA precipitateble polymers after stimulation by the addition of a blunt-ended oligonucleotide and compared with non-oligonucleotide-stimulated cells. PARP activity in tumour homogenates (1 in 40 in isotonic buffer) from formula III-treated mice was measured in the same way. PARP activity in pbls and tumour homogenates from formula I-phosphate treated mice was measured by immunological detection of polymer using the 10H antibody. Briefly, tumour homogenates diluted to up to 1:1000 in isotonic buffer were incubated with 350 μM NAD for 6 min and blotted onto nitrocellulose membrane. The poly(ADP-ribose) (PAR) polymer formation was quantified by chemiluminescence detection using a Fuji LAS3000 UV Illuminator by reference to serial dilutions of a PAR standard, following incubation with 10H antibody to PAR and a secondary anti-mouse antibody.

SW620 xenografts = assay: Tumour growth in mice bearing SW620 xenografts; format: in vivo; conditions: formula III 15 mg/kg daily×5 in conjunction with temozolomide
Source text: FIG. 8 is a graph showing the tumour growth (median relative tumour volume) in mice bearing SW620 xenografts following treatment with formula III in combination with temozolomide (TMZ) and with TMZ alone;
FIG. 9 is a graph showing the tumour growth (median relative tumour volume) of mice bearing SW620 xenografts following treatment with formula I-phosphate in combination with temozolomide (TMZ) and with formula I-phosphate and TMZ alone;
However, shortly after this time the tumour size begins to increase.

[2] = Plasma and tumour pharmacokinetics in mice bearing SW620 xenografts; format: in vivo
PARP (tumour PARP act) = target: T2, PARP (tumour PARP act) (Homo sapiens, UniProt P09874); assay: PARP activity in SW620 tumour homogenates of formula III-treated mice ([32P] NAD+ incorporation); format: in vivo; conditions: formula III 10 mg/kg intraperitoneal; SW620 xenografts
T2 construct: from tissue; host or cells: SW620 xenograft tumour homogenates from treated mice
T2 sequence (P09874 whole entry): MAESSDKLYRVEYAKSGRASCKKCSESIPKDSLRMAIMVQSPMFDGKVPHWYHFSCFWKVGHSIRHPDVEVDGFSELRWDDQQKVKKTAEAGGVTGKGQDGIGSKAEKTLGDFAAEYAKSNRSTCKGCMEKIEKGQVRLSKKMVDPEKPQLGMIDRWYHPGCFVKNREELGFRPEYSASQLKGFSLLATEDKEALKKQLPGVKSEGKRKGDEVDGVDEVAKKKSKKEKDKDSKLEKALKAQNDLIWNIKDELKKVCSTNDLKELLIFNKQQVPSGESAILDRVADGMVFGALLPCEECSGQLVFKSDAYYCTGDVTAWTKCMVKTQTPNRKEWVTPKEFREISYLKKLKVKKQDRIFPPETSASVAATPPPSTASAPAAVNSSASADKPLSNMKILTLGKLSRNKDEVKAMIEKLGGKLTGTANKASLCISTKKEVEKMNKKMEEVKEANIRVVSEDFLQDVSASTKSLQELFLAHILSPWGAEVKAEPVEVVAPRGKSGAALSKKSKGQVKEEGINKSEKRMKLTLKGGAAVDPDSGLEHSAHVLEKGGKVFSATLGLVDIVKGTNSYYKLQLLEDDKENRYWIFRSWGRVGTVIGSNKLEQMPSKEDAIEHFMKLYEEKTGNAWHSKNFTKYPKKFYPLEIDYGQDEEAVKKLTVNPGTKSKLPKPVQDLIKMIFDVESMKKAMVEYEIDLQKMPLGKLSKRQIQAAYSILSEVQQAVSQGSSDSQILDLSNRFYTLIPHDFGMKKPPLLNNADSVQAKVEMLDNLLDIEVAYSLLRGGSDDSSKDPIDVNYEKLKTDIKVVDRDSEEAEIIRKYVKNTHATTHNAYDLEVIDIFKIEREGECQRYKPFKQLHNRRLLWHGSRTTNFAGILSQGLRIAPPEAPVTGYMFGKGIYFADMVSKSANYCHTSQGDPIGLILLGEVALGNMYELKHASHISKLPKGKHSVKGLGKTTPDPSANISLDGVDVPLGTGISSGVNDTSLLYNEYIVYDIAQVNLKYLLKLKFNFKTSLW
Method: as §1

PARP [3] = target: T1, PARP; assay: Cellular PARP activity assay, intact L1210 cells; format: cell-based; conditions: intact L1210 cells exposed for 20 minutes prior to permeabilisation
Method: as §1

PARP (tumour PARP) = PARP (tumour PARP) (Homo sapiens, UniProt P09874); assay: PARP activity in SW620 tumour homogenates of formula I-phosphate treated mice (10H antibody); format: in vivo
PARP (tumour PARP), sequence (P09874 whole entry): as above

Solubility = format: physicochemical; conditions: phosphate salt versus parent compound
PARP (pbl parp) = target: T3, PARP (pbl parp) (Mus musculus, UniProt P11103); assay: PARP activity in peripheral blood lymphocytes of formula I-phosphate treated mice (10H antibody); format: in vivo
T3 construct: from tissue; host or cells: peripheral blood lymphocytes of treated mice
T3 sequence (P11103 whole entry): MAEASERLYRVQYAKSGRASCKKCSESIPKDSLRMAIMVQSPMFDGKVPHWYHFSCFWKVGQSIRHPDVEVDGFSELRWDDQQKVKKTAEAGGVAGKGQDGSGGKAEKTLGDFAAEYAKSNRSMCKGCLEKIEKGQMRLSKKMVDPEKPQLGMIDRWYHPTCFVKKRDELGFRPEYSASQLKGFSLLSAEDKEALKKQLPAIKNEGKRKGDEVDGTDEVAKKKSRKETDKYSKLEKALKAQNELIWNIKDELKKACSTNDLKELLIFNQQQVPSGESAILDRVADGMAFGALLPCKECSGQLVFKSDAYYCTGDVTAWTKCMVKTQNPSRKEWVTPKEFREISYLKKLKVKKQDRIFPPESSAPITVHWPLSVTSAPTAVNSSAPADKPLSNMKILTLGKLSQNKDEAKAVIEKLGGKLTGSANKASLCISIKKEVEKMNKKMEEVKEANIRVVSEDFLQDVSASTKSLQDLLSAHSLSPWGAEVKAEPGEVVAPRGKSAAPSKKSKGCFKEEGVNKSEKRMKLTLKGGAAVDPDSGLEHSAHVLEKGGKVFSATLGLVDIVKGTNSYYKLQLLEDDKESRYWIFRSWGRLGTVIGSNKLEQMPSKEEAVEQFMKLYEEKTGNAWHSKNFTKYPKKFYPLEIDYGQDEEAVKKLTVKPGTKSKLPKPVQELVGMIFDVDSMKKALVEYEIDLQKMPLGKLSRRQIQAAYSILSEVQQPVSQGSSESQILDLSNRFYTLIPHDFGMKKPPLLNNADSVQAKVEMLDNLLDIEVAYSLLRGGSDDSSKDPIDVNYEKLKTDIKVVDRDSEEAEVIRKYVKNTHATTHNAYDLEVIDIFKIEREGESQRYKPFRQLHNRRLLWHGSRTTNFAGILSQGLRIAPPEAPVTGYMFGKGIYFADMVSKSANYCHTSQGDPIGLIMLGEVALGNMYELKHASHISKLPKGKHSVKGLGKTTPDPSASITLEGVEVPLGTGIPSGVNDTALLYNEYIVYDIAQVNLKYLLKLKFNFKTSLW

[4] = formula III 10 mg/kg intraperitoneal
[5] = formula I-phosphate 1 mg/kg, compared with 10 mg/kg
[6] = formula I-phosphate 10 mg/kg intraperitoneal, 24 hr after administration
[7] = formula I-phosphate 10 mg/kg intraperitoneal, thirty minutes after administration

T1 sequence (P11103 whole entry): as above

| SMILES | PARP inhibitory activity, formula I compared with formula III (PARP [1]) | tumour outcome at autopsy at the end of the experiment (SW620 xenografts) | distribution to the tumour [2, 4] | retention in tumour versus plasma with time [2, 4] | PARP activity in the tumour (PARP (tumour PARP act)) | PARP inhibitory activity, formula I compared with formula III (PARP [3]) | effect on PARP activity in tumour (PARP (tumour PARP); [5]) | PARP activity in tumour (PARP (tumour PARP); formula I-phosphate 10 mg/kg intraperitoneal, up to 24 hr, SW620 xenografts) | solubility relative to formula I (Solubility) | plasma concentration of formula I [2, 5] | tumour concentration of formula I [2, 5] | decrease of concentration with time, plasma versus tumour ([2]; formula I-phosphate 10 mg/kg intraperitoneal) | plasma concentration of parent compound (formula I) [2, 6] | tumour concentration of parent compound (formula I) [2, 6] | plasma concentration of parent compound (formula I) [2, 7] | tumour concentration of parent compound (formula I) [2, 7] | effect on PARP activity in pbls (PARP (pbl parp); [5]) | PARP activity in pbls (PARP (pbl parp); formula I-phosphate 10 mg/kg intraperitoneal, up to 24 hr) |
| --- | --- | --- | --- | --- | --- | --- | --- | --- | --- | --- | --- | --- | --- | --- | --- | --- | --- | --- |
| CN(C)Cc1ccc(-c2nc3cccc4c3n2CCNC4=O)cc1 [formula III] | no difference | complete tumour regression | distributes well to the tumour | preferentially retained with time | inhibits PARP activity | – | – | – | – | – | – | – | – | – | – | – | – | – |
| CNCc1ccc(-c2[nH]c3cc(F)cc4c3c2CCNC4=O)cc1 [formula I] | no difference | – | – | – | – | more potent | – | – | – | – | – | – | – | – | – | – | – | – |
| CNCc1ccc(-c2[nH]c3cc(F)cc4c3c2CCNC4=O)cc1.O=P(O)(O)O [formula I-phosphate] | – | – | – | – | – | – | less pronounced effect | < 50 % control | increases the solubility | lower levels | lower levels | more rapidly in the plasma than in the tumour | none could be detected | significant levels were detectable | high levels | high levels | less pronounced effect | < 50 % control |
